Source: paper PMC12169680, “Design and Mechanistic Analysis of a Potent Bivalent Inhibitor of Transthyretin Amyloid Fibrillogenesis” (Journal of Medicinal Chemistry, 2025)

Columns and labels:
V122I TTR = target: T1, V122I TTR (Homo sapiens, UniProt P02766, V142I); assay: Inhibition of mechano-enzymatic fibrillogenesis (ThT); type: biochemical; conditions: for antifibrillogenic activity, in words: V122I TTR; for inhibition of V122I TTR amyloid formation at equimolar ligand/protein, in words: 9 μM V122I TTR, equimolar concentration, bivalent vs monovalent ligands
T1 construct: 1-127; His6 (N); TEV cleavage site (N); made in house; host or cells: E. coli BL21 (DE3)
Procedure: To test their potency as inhibitors of TTR fibril formation, the 15 ligands were evaluated for their ability to inhibit the mechano-enzymatic mechanism of fibrillogenesis of V122I TTR, which is one of the most common amyloidogenic variants, , causing a disease with severity intermediate between the wild-type and other rare, more aggressive types of amyloidosis. […] Biochemical activity of ligands together with their physicochemical properties (i.e., cLogD, TPSA) were taken into consideration and B26 was finally selected as the most promising lead for further studies (Figure A). […] Prototype mds84 was also included for comparison. […] Although higher molar ratios of the monovalent ligands did inhibit fibrillogenesis, this cannot be replicated in vivo because the negative cooperativity of TTR cannot be overcome at feasible drug dosage. ,
Recombinant V122I TTR at 0.5 mg/mL (9 μM) in PBS, pH 7.4 was preincubated (37 °C for 30 min) with an equimolar concentration of ligand (or DMSO alone) before adding trypsin (5 ng/μL). Protein fibrillogenesis was carried out in glass vials stirred at 1400 rpm (IKA magnetic stirrer), 37 °C and spectrophotometric turbidity at 400 nm was used to monitor fibril formation over time until it reached a plateau at 96 h.
Analysis of amyloid material harvested from each sample at the end of the fibrillogenesis was carried out using Thioflavin T (ThT) emission fluorescence and Congo red staining. For these analyses, samples were centrifuged 20 min at 11,600g and pellets were thoroughly rinsed with PBS to remove nonbound ligand, resuspended with 100 μL PBS, pH 7.4, containing 10 μM Thioflavin T (ThT) in Costar 96-well black-wall plates. Bottom fluorescence values (excitation 440 nm, emission 480 nm) were recorded using a BMG LABTECH FLUostar Omega plate reader. Each value was normalized to the ThT signal of the TTR sample without ligand.

[1] = target: T2, isolated recombinant wild-type TTR (Homo sapiens, UniProt P02766); assay: Displacement of 125I-T4 from isolated wild-type TTR; type: binding; conditions: for IC50: ligand concentration reducing binding of 125I-thyroxine by isolated recombinant wild-type TTR by 50%, mean ± SD, read-out: bIC50; for IC50 in buffer (bIC50) compared to mds84, in words: isolated TTR
T2 construct: Native TTR is a noncovalent homotetramer of β-sheet-rich 127-residue protomers; His6 (N); TEV cleavage site (N); made in house; host or cells: E. coli BL21 (DE3)
Procedure: Competition of ligands with thyroxine for binding by TTR was assayed quantitatively by a previously described procedure.

[2] = target: T3, wild-type TTR in normal human plasma (Homo sapiens, UniProt P02766); assay: Displacement of 125I-T4 from TTR in normal human plasma; type: binding; conditions: for binding to TTR in plasma, in words: normal human plasma
T3 construct: TTR in whole plasma, from individuals homozygous for wild-type TTR; from tissue; host or cells: whole human plasma from individuals homozygous for wild-type TTR

[3] = target: T4, recombinant wild-type TTR (Homo sapiens, UniProt P02766); assay: Stopped flow kinetics of ligand binding by fluorescence emission; conditions: 1 μM TTR
T4 construct: Native TTR is a noncovalent homotetramer of β-sheet-rich 127-residue protomers; His6 (N); TEV cleavage site (N); made in house; host or cells: E. coli BL21 (DE3)
Procedure: Interaction of ligands in the TTR thyroxine binding pockets induces quenching of intrinsic fluorescence emission.
Kinetics of binding within the first second of reaction was evaluated with an SFM 3000 stopped flow device coupled to a MOS500 spectrometer with a fluorescence detection system (Bio Logic, Claix, France) and a cell path length of 1.5 mm (dead-time <5 ms). Total fluorescence emission over 325 nm, using a cut off filter, was monitored after excitation at 280 nm at 37 °C and 1 μM recombinant wild-type TTR in the presence of 1 μM of ligand in PBS pH 7.4 at a final concentration of 0.9% DMSO. Kinetic data were acquired as the average of at least 3 experimental mixings and fitted using the following equation y(t)=q+Aexp(−kt) where y(t) is the observed fluorescence q the offset of the baseline. A and k are, respectively, amplitude and rate constant of the observed fluorescence change.

[4] = residual V122I TTR fibrillar aggregation with equimolar ligand, ThT emission normalized to protein without ligand, mean ± SD
[5] = supplementary CSV, residual V122I TTR aggregation, equimolar ligand
[6] = ligand concentration reducing binding of 125I-thyroxine by wild-type TTR by 50% in normal human plasma, mean ± SD

| SMILES | antifibrillogenic activity, in words (V122I TTR; equimolar ligand) | Agg (%) (V122I TTR; [4]) | Agg (%) (V122I TTR; [5]) | IC50 [1] [µM] | binding to TTR in plasma, in words [2] | IC50 ([2]; supplementary CSV, TTR in normal human plasma) [µM] | IC50 [2, 6] [µM] | inhibition of V122I TTR amyloid formation at equimolar ligand/protein, in words (V122I TTR) | IC50 in buffer (bIC50) compared to mds84, in words [1] | rate constant k of TTR intrinsic fluorescence quenching ([3]; 1 μM ligand, 37 °C, PBS pH 7.4, first second) [s^–1] | very early change in TTR fluorescence during dead time ([3]; dead time <5 ms, equimolar ligand) |
| --- | --- | --- | --- | --- | --- | --- | --- | --- | --- | --- | --- |
| O=C(O)CCc1cc(Cl)c(OCC[C@@H](O)[C@H](O)CCOc2c(Cl)cc(Nc3ccccc3C(=O)O)cc2Cl)c(Cl)c1 [B4A, 2-[4-[(3R,4R)-6-[4-(2-carboxyethyl)-2,6-dichloro-phenoxy]-3,4-dihydroxy-hexoxy]-3,5-dichloro-anilino]-Benzoic Acid] | excellent inhibitors of fibrillogenesis | 3.3 ± 1.2 | 4.4±3.0 | 0.07 ± 0.009 | increased the potency of binding | 4.4 ± 1.2 | – | – | – | – | – |
| O=C(O)CCc1cc(Cl)c(OCC[C@H](O)[C@@H](O)CCOc2c(Cl)cc(Nc3ccccc3C(=O)O)cc2Cl)c(Cl)c1 [B4, 2-[4-[(3S,4S)-6-[4-(2-Carboxyethyl)-2,6-dichloro-phenoxy]-3,4-dihydroxy-hexoxy]-3,5-dichloro-anilino]-benzoic acid] | excellent inhibitors of fibrillogenesis | 4.4 ± 3.0 | – | – | increased the potency of binding | – | – | – | – | – | – |
| O=C(O)CCc1cc(Cl)c(OCCCOCCOc2c(Cl)cc(Nc3ccnnc3C(=O)O)cc2Cl)c(Cl)c1 [B25, 4-[4-[2-[3-[4-(2-Carboxyethyl)-2,6-dichloro-phenoxy]-propoxy]-ethoxy]-3,5-dichloro-anilino]-Pyridazine-3-Carboxylic acid] | – | 11 ± 4.8 | 11±4.8 | – | preservation of the properties | – | 3.3 ± 1.8 | – | – | – | – |
| O=C(O)CCc1cc(Cl)c(OCC[C@@H](O)[C@H](O)CCOc2ccc(Nc3ccccc3C(=O)O)cc2Cl)c(Cl)c1 [B20, 2-[4-[(3R,4R)-6-[4-(2-Carboxyethyl)-2,6-dichloro-phenoxy]-3,4-dihydroxy-hexoxy]-3-chloro-anilino]-Benzoic Acid] | reduced potency | 11 ± 4.1 | 11±4.1 | – | reduction in the observed potency | – | – | – | – | – | – |
| Cc1n[nH]c(C)c1CCCOc1cc(C(=O)O)ccc1F [AG10, acoramidis, reference compound] | – | – | – | – | – | – | – | significantly lower inhibitory effect | – | – | – |
| O=C(O)CCc1cc(Cl)c(OCCCOCCOc2c(Cl)cc(Nc3ccncc3C(=O)O)cc2Cl)c(Cl)c1 [B27, 4-[4-[2-[3-[4-(2-Carboxyethyl)-2,6-dichloro-phenoxy]-propoxy]-ethoxy]-3,5-Dichloro-anilino]-Pyridine-3-Carboxylic Acid] | – | 12 ± 1.1 | 12±1.1 | – | preservation of the properties | – | – | – | – | – | – |
| O=C(O)CCc1cc(Cl)c(OCCCOCCOc2c(Cl)cc(Nc3cnncc3C(=O)O)cc2Cl)c(Cl)c1 [B24, 5-[4-[2-[3-[4-(2-Carboxyethyl)-2,6-dichloro-phenoxy]-propoxy]-ethoxy]-3,5-dichloro-anilino]-Pyridazine-4-Carboxylic acid] | – | 13 ± 8.2 | 13±8.2 | 0.1 ± 0.005 | slight reduction of binding potency | – | 7.9 ± 1.4 | – | – | – | – |
| O=C(O)CCc1cc(Cl)c(OCOCCCOc2c(Cl)cc(Nc3ccccc3C(=O)O)cc2Cl)c(Cl)c1 [B8, 2-[4-[3-[[4-(2-Carboxyethyl)-2,6-dichloro-phenoxy]-methoxy]-propoxy]-3,5-dichloro-anilino]-Benzoic Acid] | Antifibrillogenic activity was reduced | 12 ± 3.7 | 12±3.7 | 2.1 ± 0.21 | reduced binding | – | > 150 | – | higher values of IC50 | – | – |
| O=C(O)CCc1ccc(OCC[C@@H](O)[C@H](O)CCOc2ccc(Nc3ccccc3C(=O)O)cc2Cl)c(Cl)c1 [B22, 2-[4-[(3R,4R)-6-[4-(2-Carboxyethyl)-2-chloro-phenoxy]-3,4-dihydroxy-hexoxy]-3-chloro-anilino]Benzoic Acid] | reduced potency | 15 ± 2.8 | 15±2.8 | – | reduction in the observed potency | – | – | – | – | – | – |
| O=C(O)CCc1ccc(OCCC(O)C(O)CCOc2c(Cl)cc(Nc3ccccc3C(=O)O)cc2Cl)c(Cl)c1 (stereo not drawn) [B21, 2-[4-[6-[4-(2-Carboxyethyl)-2-chloro-phenoxy]-3,4-dihydroxy-hexoxy]-3,5-dichloro-anilino]-Benzoic Acid] | reduced potency | 15 ± 2.8 | 15±2.8 | 0.07 ± 0.004 | reduction in the observed potency | – | 4.1 ± 2.1 | – | – | – | – |
| O=C(O)CCc1cc(Cl)c(OCCOCCCCOc2c(Cl)cc(Nc3ccccc3C(=O)O)cc2Cl)c(Cl)c1 [B2, 2-[4-[4-[2-[4-(2-Carboxyethyl)-2,6-dichloro-phenoxy]-ethoxy]-butoxy]-3,5-dichloro-anilino]-Benzoic Acid] | excellent inhibitors of fibrillogenesis | 4.4 ± 1.5 | 4.4±1.5 | – | increased the potency of binding | – | 2.6 ± 0.59 | – | – | – | – |
| O=C(O)CCc1cc(Cl)c(OCC/C=C/CCOc2c(Cl)cc(Nc3ccccc3C(=O)O)cc2Cl)c(Cl)c1 [B14, 2-[4-[(E)-6-[4-(2-Carboxyethyl)-2,6-dichloro-phenoxy]-hex-3-enoxy]-3,5-dichloro-anilino]-Benzoic Acid] | Antifibrillogenic activity was reduced | 13 ± 3.2 | 13±3.2 | 0.08 ± 0.008 | – | – | 11 ± 2.9 | – | – | – | – |
| O=C(O)CCOCCCOCCCOCCCOc1c(Cl)cc(Nc2ccccc2C(=O)O)cc1Cl [B6, 2-[4-[3-[3-[3-(2-Carboxy-ethoxy)-propoxy]-propoxy]-propoxy]-3,5-dichloro-anilino]-Benzoic Acid] | Antifibrillogenic activity was reduced | 12 ± 4.4 | 12±4.4 | 1.2 ± 0.41 | reduced binding | – | 40 ± 13 | – | higher values of IC50 | – | – |
| O=C(O)COCCOCCOCCOc1c(Cl)cc(Nc2ccccc2C(=O)O)cc1Cl [B5, 2-[4-[2-[2-[2-(Carboxymethoxy)-ethoxy]-ethoxy]-ethoxy]-3,5-dichloro-anilino]-Benzoic Acid] | Antifibrillogenic activity was reduced | 28.8 ± 13.4 | 28.8±13.4 | 5 ± 0.4 | reduced binding | – | – | – | higher values of IC50 | – | – |
| O=C(O)CCc1cc(Cl)c(OCCCOCCOc2c(Cl)cc(Nc3ccccc3C(=O)O)cc2Cl)c(Cl)c1 [B1, 2-[4-[2-[3-[4-(2-Carboxyethyl)-2,6-dichloro-phenoxy]-propoxy]-ethoxy]-3,5-dichloro-anilino]-Benzoic Acid] | excellent inhibitors of fibrillogenesis | 5.2 ± 3.6 | 5.2±3.6 | 0.1 ± 0.03 | increased the potency of binding | – | 1.1 ± 0.11 | – | – | – | – |
| O=C(O)c1ccc2nc(-c3cc(Cl)cc(Cl)c3)oc2c1 [tafamidis, reference compound] | – | – | – | – | – | – | – | significantly lower inhibitory effect | – | 49 ± 0.0016 | approximately 8% |
